# Results reported in ChEMBL document CHEMBL3727350, “Agents and methods for treating ischemic and other diseases” (2014).
# Calls of active or inactive are those of the source. The calls are words filed in the database; no cut-off is given here.
# Target: Transient receptor potential cation channel subfamily M member 7 (Mus musculus) (UniProt Q923J1)
# Experiment: Inhibition of Tet-induced Flag-tagged mouse TRPM7 expressed in HEK293 cells assessed as inhibition of channel-mediated cell death in presence of Mg2+ incubated for 24 to 48 hrs by propidium iodide uptake assay
# Assay type: cell-based
# Set-up: concentration or dose not given beside the values
# Conditions: not given
# Chain of Transient receptor potential cation channel subfamily M member 7 (Mus musculus) (Q923J1 whole entry): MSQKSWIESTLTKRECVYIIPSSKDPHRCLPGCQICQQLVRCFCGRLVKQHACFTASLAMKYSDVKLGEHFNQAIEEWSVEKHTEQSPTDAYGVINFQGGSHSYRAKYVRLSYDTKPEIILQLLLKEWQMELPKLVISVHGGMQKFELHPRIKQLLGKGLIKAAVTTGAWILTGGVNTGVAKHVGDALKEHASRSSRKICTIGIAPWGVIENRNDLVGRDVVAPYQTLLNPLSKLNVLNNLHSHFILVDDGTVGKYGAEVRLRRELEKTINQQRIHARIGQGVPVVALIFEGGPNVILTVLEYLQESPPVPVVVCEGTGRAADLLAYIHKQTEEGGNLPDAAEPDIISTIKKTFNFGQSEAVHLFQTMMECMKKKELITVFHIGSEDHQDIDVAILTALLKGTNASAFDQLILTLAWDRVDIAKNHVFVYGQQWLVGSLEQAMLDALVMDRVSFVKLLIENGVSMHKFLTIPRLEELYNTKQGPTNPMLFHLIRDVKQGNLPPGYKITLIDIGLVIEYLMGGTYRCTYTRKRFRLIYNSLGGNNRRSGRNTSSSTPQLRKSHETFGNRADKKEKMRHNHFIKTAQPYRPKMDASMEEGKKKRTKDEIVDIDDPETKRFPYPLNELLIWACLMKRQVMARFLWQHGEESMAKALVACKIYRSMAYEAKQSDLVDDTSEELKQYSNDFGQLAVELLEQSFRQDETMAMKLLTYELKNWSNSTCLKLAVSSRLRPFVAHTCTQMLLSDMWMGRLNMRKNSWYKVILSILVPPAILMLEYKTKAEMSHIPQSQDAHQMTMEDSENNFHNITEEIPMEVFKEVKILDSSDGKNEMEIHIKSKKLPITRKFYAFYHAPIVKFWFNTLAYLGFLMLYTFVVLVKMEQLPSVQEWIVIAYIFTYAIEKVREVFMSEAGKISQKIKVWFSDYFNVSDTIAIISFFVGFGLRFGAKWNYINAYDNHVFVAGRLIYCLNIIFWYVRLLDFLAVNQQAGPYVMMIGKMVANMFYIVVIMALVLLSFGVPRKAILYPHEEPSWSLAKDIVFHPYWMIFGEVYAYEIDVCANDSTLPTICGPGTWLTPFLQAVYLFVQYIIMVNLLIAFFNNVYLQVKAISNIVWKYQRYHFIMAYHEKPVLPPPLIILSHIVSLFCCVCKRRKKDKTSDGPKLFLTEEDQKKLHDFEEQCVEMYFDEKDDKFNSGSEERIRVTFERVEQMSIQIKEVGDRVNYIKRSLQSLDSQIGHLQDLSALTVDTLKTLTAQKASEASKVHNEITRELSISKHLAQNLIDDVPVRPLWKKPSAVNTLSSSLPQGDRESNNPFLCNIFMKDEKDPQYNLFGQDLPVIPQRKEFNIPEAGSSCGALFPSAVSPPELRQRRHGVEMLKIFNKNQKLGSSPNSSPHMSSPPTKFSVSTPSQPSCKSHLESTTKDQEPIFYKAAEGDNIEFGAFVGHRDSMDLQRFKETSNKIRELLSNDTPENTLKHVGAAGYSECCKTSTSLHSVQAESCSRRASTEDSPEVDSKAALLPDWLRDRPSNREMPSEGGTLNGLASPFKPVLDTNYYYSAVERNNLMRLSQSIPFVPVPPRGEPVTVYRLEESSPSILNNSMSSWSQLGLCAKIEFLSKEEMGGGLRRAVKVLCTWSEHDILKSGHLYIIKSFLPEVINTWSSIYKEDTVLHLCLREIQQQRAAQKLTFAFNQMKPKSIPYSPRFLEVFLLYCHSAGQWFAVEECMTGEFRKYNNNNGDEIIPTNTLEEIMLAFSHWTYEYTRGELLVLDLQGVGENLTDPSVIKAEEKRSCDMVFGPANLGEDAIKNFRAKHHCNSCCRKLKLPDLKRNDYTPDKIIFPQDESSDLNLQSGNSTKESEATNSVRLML
row,Structure (SMILES),inhibition
1,C[C@H]1O[C@@H](O[C@H]2[C@@H](O)C[C@H](O[C@H]3[C@@H](O)C[C@H](O[C@H]4CC[C@@]5(C)[C@H](CC[C@@H]6[C@@H]5C[C@@H](O)[C@]5(C)[C@@H](C7=CC(=O)OC7)CC[C@]65O)C4)O[C@@H]3C)O[C@@H]2C)C[C@H](O)[C@@H]1O,Dose-dependent effect
2,COc1ccc(C[C@H](N)C(=O)N[C@H]2[C@@H](O)[C@H](n3cnc4c(N(C)C)ncnc43)O[C@@H]2CO)cc1,Dose-dependent effect
3,COc1cc2c(c(OC)c1OC)-c1ccc(OC)c(=O)cc1[C@@H](NC(C)=O)CC2,Active
4,CCOc1ccc(Cc2nccc3cc(OCC)c(OCC)cc23)cc1OCC,Dose-dependent effect
5,Cc1cc(C2CCCCC2)n(O)c(=O)c1,Active

# Same assay, conditions: concentration not given here
row,Structure (SMILES),inhibition
1,Cc1c(S(=O)(=O)Nc2ccc(Cl)cc2)sc2ccc(Cl)cc12,< 30%
2,CSc1nc2c(c(/C=C/c3ccccc3)c1C#N)CCC2,< 30%
3,CC(C)NC(=O)c1cc(-c2cccs2)on1,30%
4,Cc1c(C)c(C)c(CO/N=C/c2cccs2)c(C)c1C,70%
5,CCOC(=O)c1nn(-c2cccc(Cl)c2)cc(Sc2ccc(Cl)cc2)c1=O,40%
6,CN(C)c1cccc(N(C)C)c1CNC(=O)c1ccc(Cl)cc1,80%
7,COc1ccc(C(=O)Nc2c(-c3cccc(C(F)(F)F)c3)c(C(F)(F)F)nn2C)cc1OC,< 30%
8,CSc1nnc(CN2C(=O)CSc3ccc(C(F)(F)F)cc32)n1C,< 30%
9,CCOC(=O)C(Nc1ccccc1)C(=O)OCC,30%
10,CCOC(=O)C(=CNNC(=O)c1cnn(-c2ccc([N+](=O)[O-])cc2)c1C(F)(F)F)C(=O)OCC,90%
11,O=c1oc2cc(O)ccc2c(O)c1Cc1ccc(Cl)c(Cl)c1,80%
12,[O-][S+](c1ccc(Cl)cc1)c1ccc(-c2ccccn2)s1 (configuration not stated),< 30%
13,Cc1nnsc1C(=O)NCc1csc2ccc(Cl)cc12,< 30%
14,Fc1ccc(CN2CCN(Cc3c[nH]c4ccccc34)CC2)cc1,70%
15,O=C(/C(=N/Nc1ccc([N+](=O)[O-])cc1)C(=O)C(F)(F)F)c1cccs1,40%
16,CC(C)N(Cc1ccc(N(C)C)cc1)C(=O)c1sc2ccccc2c1Cl,50%
17,COc1ccccc1N1CCN(Cc2c[nH]c(-c3ccccc3)n2)CC1,< 30%
18,O=C(NNC(=S)Nc1cc(Cl)ccc1Cl)C(O)(c1ccccc1)c1ccccc1,50%
19,Cn1c(SCC(=O)Nc2cccc3nsnc23)nnc1C(F)(F)F,< 30%
20,CC(=O)Nc1ccc(S(=O)(=O)NNc2c(Cl)cncc2Cl)cc1Cl,50%
21,COc1ccc(-c2[nH]ncc2CN2CCC(O)(c3ccc(Cl)cc3)CC2)cc1,< 30%
22,COC(=O)c1cc(C)nc(Sc2ccccc2NC(=O)c2ccccc2)n1,< 30%

row,Structure (SMILES),inhibition
1,O=[N+]([O-])c1ccc(-n2ncc(-c3nc(-c4ccc(Cl)cc4)no3)c2C(F)(F)F)cc1,< 30%
2,COc1ccccc1C1CCN(C(=O)CSCc2cccc3ccccc23)CC1,80%
3,O=C1/C(=C\c2ccc(F)cc2)Sc2ccccc21,< 30%
4,Cc1nn(Cc2nc(-c3ccc(Cl)cc3)cs2)c(C)c1Br,40%
5,O=C1CC(c2ccccc2)CC(=O)N1c1ccc(Oc2ccc(Cl)cc2)cc1,< 30%
6,O=C(NCc1cccs1)c1ccccc1,< 30%
7,Oc1c(Cl)cc(Cl)cc1/C=N/c1ccc(Cl)cn1,40%
8,O=C(NNC(=S)Nc1cc(Cl)ccc1Cl)c1ccccc1Cl,< 30%
9,O=C(Nc1ccc(F)c(Cl)c1)c1ccccc1O,< 30%
10,Cc1cc(O)nc2c1c(-c1ccccc1)nn2C,< 30%
11,O=C(Nc1ccc(Oc2ccccc2)cc1)Nc1cccs1,70%
12,Cc1onc(-c2c(Cl)cccc2Cl)c1C(=O)Oc1ccccc1,< 30%
13,C/C=N/N(c1ccccc1)c1cc(-c2ccc(OC)cc2)c(C#N)c(=O)[nH]1,60%
14,COC(=O)C1=CNC(CC(CC=O)c2ccc(F)cc2)=CC1c1ccc(N(C)C)cc1Cl (configuration not stated),< 30%
15,COc1ccc2c(c1)CC/C(=C\c1ccc(Cl)cc1Cl)C2=O,60%
16,CS/C(=N/C(C)(C)C)Nc1ccccc1Cl,< 30%
17,C#CCSc1nc(-c2ccc(C(F)(F)F)cc2)nc(C)c1C(C)=O,< 30%
18,Cc1nc(-c2ccc(S(=O)(=O)Nc3cccc(S(N)(=O)=O)c3)s2)cs1,< 30%
19,O=C(Nc1ccc(Cl)cc1)OCc1noc(-c2cccs2)n1,70%
20,O=C(N/C=C/c1cccs1)Nc1ccc(Cl)cc1,< 30%
21,CC(C)(C)[C@H](CO)/N=C/c1cccc(/C=N/[C@H](CO)C(C)(C)C)n1,< 30%
22,Cc1ccc2c(c1)CCCN2C(=S)Nc1cccc(Cl)c1,< 30%

row,Structure (SMILES),inhibition
1,CSC(SC)=C(C#N)C(=O)c1ccccc1Cl,< 30%
2,O=C(Nc1ccc(Cl)cc1)Nc1ccccc1Oc1ccccc1,50%
3,O=C1CC2Sc3ccccc3N=C2N1Cc1ccccn1 (configuration not stated),< 30%
4,CCOC(=O)c1c(-n2c(C)ccc2C)sc2c1CCCC2,70%
5,Oc1cc(C(F)(F)F)nc2ccc(F)cc12,80%
6,Cc1ccc(S(=O)(=O)NCCN2CCN(C(=O)OC(C)(C)C)CC2)cc1,< 30%
7,OC(CN1CCN(Cc2c(F)cccc2Cl)CC1)Cn1ccc2ccccc21 (configuration not stated),50%
8,COC(=O)/C(=C/N(C)C)NC(=O)c1ccccc1,< 30%
9,Cc1cccn2cc(-c3ccccc3Cl)nc12,30%
10,O=[N+]([O-])c1ccc(Nc2cccc(F)c2)c2nonc12,40%
11,CCc1c(O)c2ccccc2n(C)c1=O,50%
12,CC(C)(C)c1ccc(OCc2ncc(S(=O)(=O)c3ccccc3)c(N)n2)cc1,< 30%
13,CCOC(=O)C1=C(C)NC(=O)NC1c1cccc2ccccc12 (configuration not stated),< 30%
14,COc1cc2c(cc1OC)C(c1cccc(C)c1)N(C(=O)c1sc3ccccc3c1Cl)CC2 (configuration not stated),40%
15,COc1cc(C(=O)Oc2c(Cl)cc(Cl)cc2/C=N\c2cccc(C(F)(F)F)c2)cc(OC)c1OC,< 30%
16,O=c1ccn(-c2ccc(F)cc2)nc1-c1ccnc(SCc2ccc(C(F)(F)F)cc2)n1,< 30%
17,CC12CCC(C(=O)N3CCSCC3)(OC1=O)C2(C)C (configuration not stated),< 30%
18,FC(F)(F)c1ccccc1NC(=S)N1CCCN(c2nc3ccc(Cl)cc3s2)CC1,60%
19,Cc1ccc(Cn2nc(C(=O)O)cc2C)cc1,< 30%
20,CCOC(=O)c1cc(C)nn1C(=O)c1ccccc1Cl,30%
21,Cc1onc(-c2c(Cl)cccc2Cl)c1C(=O)Nc1cccc2nsnc12,30%
22,CSc1sc(Br)c2c1C(=O)CCC2,< 30%

row,Structure (SMILES),inhibition
1,CCOC(=O)c1cc(Cl)ccc1OS(=O)(=O)c1ccc(NC(C)=O)cc1,50%
2,O=C(/C=C/c1cccs1)NC(=S)Nc1ccccc1Cl,< 30%
3,N#Cc1cc(CCCCc2cc(C#N)c3ccccc3c2)cc2ccccc12,< 30%
4,CC(C)(C)c1ccc(-c2noc(-c3ccc4c(c3)CCO4)n2)cc1,60%
5,Cc1cc(Sc2ncnc3cc(-c4ccc(F)cc4)sc23)c(C)cc1Cl,< 30%
6,CN1c2ccsc2C(O)=C(C(=O)Nc2cccc(Cl)c2)S1(=O)=O,< 30%
7,O=c1c(-c2ccccc2)c(O)c2cccc3c4ccccc4n1c23,90%
8,CC(C)c1ccc(NC(=O)c2c(-c3ccccc3)nnc3ccccc23)cc1,< 30%
9,CCOC(C)CNC(=S)N/N=C/c1cccnc1 (configuration not stated),< 30%
10,N#CC(C#N)=CNc1cc(C(F)(F)F)ccc1N1CCc2ccccc2C1,50%
11,O=C(Oc1ccccc1)c1csc(C2COc3ccccc3O2)n1 (configuration not stated),< 30%
12,O=C1/C(=C\c2cccs2)C(c2ccccc2)Oc2ccccc21 (configuration not stated),< 30%
13,COc1ccc(CCNc2ccc(C(F)(F)F)cc2[N+](=O)[O-])cc1OC,30%
14,CCCCCCCSc1nnc[nH]1,70%
15,CC(=O)CSc1nnc(CN2C(=O)CSc3ccc(C(F)(F)F)cc32)n1C,< 30%
16,CCCCCCCCCc1c(O)c2ccccc2[nH]c1=O,60%
17,COc1ccccc1N1CCN(Cc2c[nH]nc2-c2ccccc2)CC1,80%
18,C/C(=N\NC1=NCCN1Cc1ccccc1)c1ccc(C)cc1,70%
19,Cc1c(-c2nc(-c3ccc([N+](=O)[O-])o3)no2)n(C)oc1=O,< 30%
20,COc1ccc(-c2n[nH]cc2CN2CCN(c3ccccc3OC)CC2)cc1,< 30%
21,Cc1ccc(NC(=O)c2c(-c3ccccc3Cl)noc2C)cc1F,< 30%
22,Cc1onc(-c2ccccc2)c1-c1cnn(S(=O)(=O)c2ccc(Cl)cc2)c1,30%

row,Structure (SMILES),inhibition
1,CCCCc1ccc(NC(=O)CSc2nc(-c3ccccc3)c(-c3ccccc3)o2)c(C)c1,< 30%
2,Cc1csc2ncnc(N3CCN(C(=O)Nc4ccc(OC(F)(F)F)cc4)CC3)c12,50%
3,N#Cc1ccc(NS(=O)(=O)c2ccc3ccccc3c2)cc1,40%
4,CCOC(=O)C(=CNNC(=O)c1cccs1)C(=O)OCC,60%
5,O=C(CSc1nccc(-c2cc(-c3ccc(Cl)cc3Cl)no2)n1)Nc1ccc(Cl)cc1,30%
6,O=S(=O)(CCN1CCC(n2cccc2)CC1)c1ccc(F)cc1,40%
7,CC(C)NC(=O)n1nccc1-c1cc(-c2ccccc2)no1,< 30%
8,N/C(=N\OC(=O)c1ccc(OCC(F)(F)F)nc1)c1ccc(OC(F)(F)F)cc1,< 30%
9,N#Cc1ccc2c(c1)Sc1ccccc1N2,60%
10,Cc1ccc(Oc2ccc(C(F)(F)F)cc2[N+](=O)[O-])c2c1CCC2,< 30%
11,CC(C)(C)OC(=O)N1CCN(c2ccc(NS(=O)(=O)c3ccc(Cl)cc3)cn2)CC1,< 30%
12,O=C(Nc1ccc2ccccc2n1)c1ccc(Cl)cc1,50%
13,Cc1cc(NS(=O)(=O)c2cccs2)[nH]n1,< 30%
14,O=C(CSc1ssc(=S)c1-c1ccccc1)Nc1ccc(Cl)cc1,< 30%
15,CC(=O)N1N=C(c2ccccc2O)CC1c1ccc(Cl)cc1Cl (configuration not stated),< 30%
16,O=C1c2ccccc2C(=O)N1Cc1cccc(I)c1,40%
17,CCOC(=O)c1c(C)csc1NC(=O)CSc1ccc(Cl)cc1,50%
18,CCOC(=O)c1sc2nc(C)c(/N=N/c3ccccc3)c(C)c2c1N,< 30%
19,CCCCCCCC(=O)NC1=NC2c3ccc(OC)cc3CCC2S1 (configuration not stated),70%
